Laboratory results: patent US20220242844A1, “CANNABINOID DERIVATIVES” (CANOPY GROWTH CORPORATION, priority 2019, published 2022)
Like-named read-outs stand apart in the source and are kept apart here.

Tests used:
human CB1 receptor = target: T1, human CB1 receptor (Homo sapiens, UniProt P21554); test: CB1 radioligand ([3H]CP 55,940) competitive binding assay; conditions: for Selectivity CB1: fold difference in binding affinity, CB1 over CB2, 1.00 = about the same affinity for both receptors
T1 construct: host or cells: CHO-K1 (Chinese hamster ovary) cells, stably transfected; membranes prepared in house

human CB2 receptor = target: T2, human CB2 receptor (Homo sapiens, UniProt P34972); test: CB2 radioligand ([3H]CP 55,940) competitive binding assay; conditions: for Selectivity CB2: fold difference in binding affinity, CB2 over CB1, 1.00 = about the same affinity for both receptors
T2 construct: host or cells: CHO-K1 (Chinese hamster ovary) cells, stably transfected; membranes prepared in house

[1] = [3H]CP 55,940 displacement, membranes of CHO-K1 cells expressing human CB1 receptor, read-out: CB1 IC50
[2] = [3H]CP 55,940 displacement, membranes of CHO-K1 cells expressing human CB2 receptor, read-out: CB2 IC50

T2 sequence (P34972 whole entry): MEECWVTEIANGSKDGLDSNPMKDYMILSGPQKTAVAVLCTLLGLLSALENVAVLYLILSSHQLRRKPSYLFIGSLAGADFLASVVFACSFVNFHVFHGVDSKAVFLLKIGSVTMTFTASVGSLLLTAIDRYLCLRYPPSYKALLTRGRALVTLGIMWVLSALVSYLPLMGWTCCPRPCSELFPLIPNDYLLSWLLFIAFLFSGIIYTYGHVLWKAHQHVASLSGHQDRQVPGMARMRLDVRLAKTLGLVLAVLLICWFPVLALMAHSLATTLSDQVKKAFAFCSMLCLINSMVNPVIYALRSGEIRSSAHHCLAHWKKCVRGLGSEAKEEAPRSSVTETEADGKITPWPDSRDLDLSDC
T1 sequence (P21554 whole entry): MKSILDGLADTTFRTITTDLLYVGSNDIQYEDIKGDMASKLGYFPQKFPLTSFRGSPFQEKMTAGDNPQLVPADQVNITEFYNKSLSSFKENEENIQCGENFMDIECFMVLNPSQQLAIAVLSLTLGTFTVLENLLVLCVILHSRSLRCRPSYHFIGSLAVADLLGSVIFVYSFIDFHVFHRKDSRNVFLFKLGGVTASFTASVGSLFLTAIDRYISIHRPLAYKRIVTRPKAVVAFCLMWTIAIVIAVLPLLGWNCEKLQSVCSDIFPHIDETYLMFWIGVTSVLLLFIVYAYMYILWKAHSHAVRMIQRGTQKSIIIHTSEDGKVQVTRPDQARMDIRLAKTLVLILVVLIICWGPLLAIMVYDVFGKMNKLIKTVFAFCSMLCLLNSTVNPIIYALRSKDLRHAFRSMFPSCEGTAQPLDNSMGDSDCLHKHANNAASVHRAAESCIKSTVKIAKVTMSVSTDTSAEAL

Row | Compound | IC50 (human CB1 receptor) [µM] | IC50 (human CB2 receptor) [µM] | Selectivity CB2 (human CB2 receptor) [fold] | IC50 (human CB1 receptor; [1]) [µM] | IC50 (human CB2 receptor; [2]) [µM] | Selectivity CB1 (human CB1 receptor) [fold]
1 | CCCCCc1cc(O)c(C2C=C(C)CCC2)c2c1C(=O)OC1(CCCC1)O2 (centres unmarked) [Compound 9c, 7-hydroxy-8-(3-methylcyclohex-2-en-1-yl)-5-pentyl-spiro[1,3-benzodioxine-2,1′-cyclopentane]-4-one] | 10 to 19.9 | 1 to 9.9 | 3.32 |  |  | 
2 | CCCCCc1cc(O)c(-c2cccc(C)c2)c2c1C(=O)OC(C)(C)O2 [Compound 2a, 7-hydroxy-2,2-dimethyl-8-(m-tolyl)-5-pentyl-1,3-benzodioxin-4-one] |  |  | 3.08 | 10 to 19.9 | 1 to 9.9 | 
3 | C=C(C)[C@@H]1CCC(C)=C[C@H]1c1c(O)cc(CCCCC)c2c1OCOC2=O [Compound 1d, 7-hydroxy-8-(3-methyl-6-(prop-1-en-2-yl)cyclohex-2-en-1-yl)-5-pentyl-4H-benzo[d][1,3]dioxin-4-one] |  |  | 1.00 | 1 to 9.9 | 1 to 9.9 | 1.00
4 | C=C(C)[C@@H]1CCC(C)=C[C@H]1c1c(O)cc(CCCCC)c2c1OC(C)(C)OC2=O [Compound 2d, 7-hydroxy-2,2-dimethyl-8-(3-methyl-6-(prop-1-en-2-yl)cyclohex-2-en-1-yl)-5-pentyl-4H-benzo[d][1,3]dioxin-4-one] |  |  | 2.00 | > 20 | 10 to 19.9 | 
5 | C=C(C)C1CCC(C)=CC1c1c(O)cc(CCCCC)c2c1OC(c1ccccc1)OC2=O (centres unmarked) [Compound 3d, 7-hydroxy-8-(3-methyl-6-(prop-1-en-2-yl)cyclohex-2-en-1-yl)-5-pentyl-2-phenyl-4H-benzo[d][1,3]dioxin-4-one] |  |  |  | < 1 | 1 to 9.9 | 2.53
6 | CCCCCc1cc(O)c(C2C=C(C)CCC2)c2c1C(=O)OC(C)(C)O2 (centres unmarked) [Compound 2c, 7-hydroxy-2,2-dimethyl-8-(3-methylcyclohex-2-en-1-yl)-5-pentyl-4H-benzo[d][1,3]dioxin-4-one] | 1 to 9.9 | 10 to 19.9 |  |  |  | 2.76
7 | C=C(C)[C@@H]1CCC(C)=C[C@H]1c1c(O)cc(CCC)c2c1OC(CC(C)=O)(c1ccccc1)OC2=O (some centres unmarked) [Compound 24d, 7-hydroxy-8-(3-methyl-6-(prop-1-en-2-yl)cyclohex-2-en-1-yl)-2-(2-oxopropyl)-2-phenyl-5-propyl-4H-benzo[d][1,3]dioxin-4-one] | 1 to 9.9 | 1 to 9.9 | 1.00 |  |  | 1.00
8 | C=C(C)[C@@H]1CCC(C)=C[C@H]1c1c(O)cc(CCC)c2c1OCOC2=O [Compound 23d, 7-hydroxy-8-(3-methyl-6-(prop-1-en-2-yl)cyclohex-2-en-1-yl)-5-propyl-4H-benzo[d][1,3]dioxin-4-one] |  |  | 1.00 | 1 to 9.9 | 1 to 9.9 | 1.00
9 | CCCCCc1cc(O)c(C2C=C(C)CCC2)c2c1C(=O)OC(CC(C)=O)(c1ccccc1)O2 (centres unmarked) [Compound 12c, 7-hydroxy-8-(3-methylcyclohex-2-en-1-yl)-2-(2-oxopropyl)-5-pentyl-2-phenyl-4H-benzo[d][1,3]dioxin-4-one] | 1 to 9.9 | 1 to 9.9 | 1.37 |  |  | 
10 | C=C(C)C1CCC(C)=CC1c1c(O)cc(CCCCC)c2c1OC(C)(CC(C)=O)OC2=O (centres unmarked) [Compound 7d, 7-hydroxy-2-methyl-8-(3-methyl-6-(prop-1-en-2-yl)cyclohex-2-en-1-yl)-2-(2-oxopropyl)-5-pentyl-4H-benzo[d][1,3]dioxin-4-one] | > 20 | 1 to 9.9 | 13.33 |  |  | 
11 | CCCCCc1cc(O)c(C2C=C(C)CCC2)c2c1C(=O)OCO2 (centres unmarked) [Compound 1c, 7-hydroxy-8-(3-methylcyclohex-2-en-1-yl)-5-pentyl-4H-benzo[d][1,3]dioxin-4-one] |  |  |  |  | 1 to 9.9 | 
12 | C=C(C)[C@@H]1CCC(C)=C[C@H]1c1c(O)cc(CCCCC)c2c1OC(C)OC2=O (some centres unmarked) [Compound 16d, 7-hydroxy-2-methyl-8-(3-methyl-6-(prop-1-en-2-yl)cyclohex-2-en-1-yl)-5-pentyl-4H-benzo[d][1,3]dioxin-4-one] | 1 to 9.9 | 1 to 9.9 | 2.44 |  |  | 
13 | CCCCCc1cc(O)c(-c2cccc(C)c2)c2c1C(=O)OC(CC(C)=O)(c1ccccc1)O2 (centres unmarked) [Compound 12a, 2-acetonyl-7-hydroxy-8-(m-tolyl)-5-pentyl-2-phenyl-1,3-benzodioxin-4-one] | > 20 | 10 to 19.9 | 1.53 |  |  | 
14 | CCCCCc1cc(O)c(C2C=C(C)CCC2)c2c1C(=O)OC(CC(C)=O)O2 (centres unmarked) [Compound 14c, 7-hydroxy-8-(3-methylcyclohex-2-en-1-yl)-2-(2-oxopropyl)-5-pentyl-4H-benzo[d][1,3]dioxin-4-one] |  |  | 2.06 | 1 to 9.9 | 1 to 9.9 | 
15 | C=C(C)[C@@H]1CCC(C)=C[C@H]1c1c(O)cc(CCCCC)c2c1OC(C)(COC)OC2=O (some centres unmarked) [Compound 11d, 7-hydroxy-2-(methoxymethyl)-2-methyl-8-(3-methyl-6-(prop-1-en-2-yl)cyclohex-2-en-1-yl)-5-pentyl-4H-benzo[d][1,3]dioxin-4-one] | > 20 | 10 to 19.9 | 1.89 |  |  | 
16 | C=C(C)[C@@H]1CCC(C)=C[C@H]1c1c(O)cc(CCCCC)c2c1OC(CC)OC2=O (some centres unmarked) [Compound 17d, 2-ethyl-7-hydroxy-8-(3-methyl-6-(prop-1-en-2-yl)cyclohex-2-en-1-yl)-5-pentyl-4H-benzo[d][1,3]dioxin-4-one] |  |  | 4.35 | 1 to 9.9 | < 1 | 
17 | C=C(C)[C@@H]1CCC(C)=C[C@H]1c1c(O)cc(CCCCC)c2c1OC(CC(C)=O)OC2=O (some centres unmarked) [Compound 14d, 7-hydroxy-8-(3-methyl-6-(prop-1-en-2-yl)cyclohex-2-en-1-yl)-2-(2-oxopropyl)-5-pentyl-4H-benzo[d][1,3]dioxin-4-one] |  |  | 4.92 | 10 to 19.9 | 1 to 9.9 | 
18 | C=C(C)[C@@H]1CCC(C)=C[C@H]1c1c(O)cc(CCCCC)c2c1OC(CC(C)=O)(c1ccccc1)OC2=O (some centres unmarked) [Compound 12d, 7-hydroxy-8-(3-methyl-6-(prop-1-en-2-yl)cyclohex-2-en-1-yl)-2-(2-oxopropyl)-5-pentyl-2-phenyl-4H-benzo[d][1,3]dioxin-4-one] | 1 to 9.9 | 1 to 9.9 | 1.00 |  |  | 1.00
